“And” between values parts separate entries of the source, which are not always exact repeats. Equal values may be shown once. Read-outs that look alike come from different tables or passages of the source.
Experiments:
[1] = molecular target: T1, human 5-HT1A receptor (Homo sapiens, UniProt P08908); experiment: Competitive radioligand binding; details: for fold lower affinity than LSD for the 5-HT1A receptor: human 5-HT1A, relative to LSD
T1 sequence (P08908 1-422): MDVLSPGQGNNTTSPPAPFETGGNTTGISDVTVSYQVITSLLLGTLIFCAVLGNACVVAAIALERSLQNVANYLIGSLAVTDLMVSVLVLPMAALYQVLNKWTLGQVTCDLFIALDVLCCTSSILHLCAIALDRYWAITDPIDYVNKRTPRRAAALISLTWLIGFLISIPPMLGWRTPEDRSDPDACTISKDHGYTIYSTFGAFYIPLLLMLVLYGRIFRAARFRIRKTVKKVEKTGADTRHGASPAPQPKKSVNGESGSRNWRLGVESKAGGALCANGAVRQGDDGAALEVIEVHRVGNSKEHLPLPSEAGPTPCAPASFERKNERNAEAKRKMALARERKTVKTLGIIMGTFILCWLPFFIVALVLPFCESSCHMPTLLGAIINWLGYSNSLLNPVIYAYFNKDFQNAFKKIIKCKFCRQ

[2] = molecular target: human 5-HT2A receptor (Homo sapiens, UniProt P28223); experiment: Competitive radioligand binding
[3] = molecular target: T2, human 5-HT2C receptor (Homo sapiens, UniProt P28335); experiment: biochemical; type: binding
T2 sequence (P28335 33-458): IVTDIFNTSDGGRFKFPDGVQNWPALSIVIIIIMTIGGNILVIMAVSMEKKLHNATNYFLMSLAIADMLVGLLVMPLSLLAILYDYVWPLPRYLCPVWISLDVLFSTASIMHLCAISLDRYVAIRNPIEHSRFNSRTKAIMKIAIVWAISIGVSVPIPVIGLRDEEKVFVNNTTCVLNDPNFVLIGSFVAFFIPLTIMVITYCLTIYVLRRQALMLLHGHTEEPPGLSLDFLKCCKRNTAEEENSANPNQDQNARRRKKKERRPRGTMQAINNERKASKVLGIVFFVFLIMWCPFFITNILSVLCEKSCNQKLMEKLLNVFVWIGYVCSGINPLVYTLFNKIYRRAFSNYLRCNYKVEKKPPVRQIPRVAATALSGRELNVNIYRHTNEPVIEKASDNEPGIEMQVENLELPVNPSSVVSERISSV

[4] = molecular target: 5-HT1B (Homo sapiens, UniProt P28222); experiment: Competitive radioligand binding
[5] = molecular target: 5-HT1D (Homo sapiens, UniProt P28221); experiment: Competitive radioligand binding
[6] = molecular target: 5-HT2B (Homo sapiens, UniProt P41595); experiment: Competitive radioligand binding
[7] = molecular target: 5-HT5a (Homo sapiens, UniProt P47898); experiment: Competitive radioligand binding
[8] = molecular target: 5-HT6 (Homo sapiens, UniProt P50406); experiment: Competitive radioligand binding
[9] = molecular target: 5-HT7A (Homo sapiens, UniProt P34969); experiment: Competitive radioligand binding
[10] = molecular target: α1A (Homo sapiens, UniProt P35348); experiment: Competitive radioligand binding
[11] = molecular target: α1B (Homo sapiens, UniProt P35368); experiment: Competitive radioligand binding
[12] = molecular target: α1D (Homo sapiens, UniProt P25100); experiment: Competitive radioligand binding
[13] = molecular target: α2A (Homo sapiens, UniProt P08913); experiment: Competitive radioligand binding
[14] = molecular target: α2B (Homo sapiens, UniProt P18089); experiment: Competitive radioligand binding
[15] = molecular target: α2C (Homo sapiens, UniProt P18825); experiment: Competitive radioligand binding
[16] = molecular target: β1 (Homo sapiens, UniProt P08588); experiment: Competitive radioligand binding; set-up: species or system Human (heart)
[17] = molecular target: β2 (Homo sapiens, UniProt P07550); experiment: Competitive radioligand binding
[18] = molecular target: β3 (Homo sapiens, UniProt P13945); experiment: Competitive radioligand binding
[19] = molecular target: D1 (Homo sapiens, UniProt P21728); experiment: Competitive radioligand binding
[20] = molecular target: D2 (Homo sapiens, UniProt P14416); experiment: Competitive radioligand binding
[21] = molecular target: D3 (Homo sapiens, UniProt P35462); experiment: Competitive radioligand binding
[22] = molecular target: D4 (Homo sapiens, UniProt P21917); experiment: Competitive radioligand binding
[23] = molecular target: D5 (Homo sapiens, UniProt P21918); experiment: Competitive radioligand binding
[24] = molecular target: H1 (Homo sapiens, UniProt P35367); experiment: Competitive radioligand binding
[25] = molecular target: H2 (Homo sapiens, UniProt P25021); experiment: Competitive radioligand binding
[26] = molecular target: H3 (Cavia porcellus, UniProt Q9JI35); experiment: Competitive radioligand binding; set-up: species or system Guinea pig
[27] = molecular target: H4 (Homo sapiens, UniProt Q9H3N8); experiment: Competitive radioligand binding
[28] = molecular target: human 5-HT2A (h5-HT2A) (Homo sapiens, UniProt P28223); experiment: Gq-mediated calcium flux in Flp-In T-REx 293 cells; type: cell-based; details: for EC50: Ca^2+ flux; for Emax % 5-HT: percent 5-HT maximum response
[29] = molecular target: mouse 5-HT2A (m5-HT2A) (Mus musculus, UniProt P35363); experiment: Gq-mediated calcium flux in Flp-In T-REx 293 cells; type: cell-based; details: for EC50: Ca^2+ flux; for Emax % 5-HT: percent 5-HT maximum response
[30] = molecular target: human 5-HT2B (h5-HT2B) (Homo sapiens, UniProt P41595); experiment: Gq-mediated calcium flux in Flp-In T-REx 293 cells; type: cell-based; details: Ca^2+ flux
[31] = molecular target: T3, human 5-HT2C INI (h5-HT2C) (Homo sapiens, UniProt P28335); type: cell-based
T3 sequence (P28335 33-458): T2 sequence (P28335 33-458)

[32] = test system: male C57BL/6J mice; experiment: Head-twitch response; type: in vivo, mouse; details: for HTR Counts (mean ± SEM): 30 min session; for ED50: Mus musculus
[33] = test system: male C57BL/6J mice; details: HTR, cited from earlier work; for ED50 μg/kg (95% CI): hemitartrate (2:1) salt
[34] = test system: human subjects; details: humans, cited from earlier work
[35] = test system: mice; details: quantal scoring; ref Corne and Pickering (1967); cited from earlier work

human 5-HT2A (h5-HT2A), sequence (P28223 whole entry): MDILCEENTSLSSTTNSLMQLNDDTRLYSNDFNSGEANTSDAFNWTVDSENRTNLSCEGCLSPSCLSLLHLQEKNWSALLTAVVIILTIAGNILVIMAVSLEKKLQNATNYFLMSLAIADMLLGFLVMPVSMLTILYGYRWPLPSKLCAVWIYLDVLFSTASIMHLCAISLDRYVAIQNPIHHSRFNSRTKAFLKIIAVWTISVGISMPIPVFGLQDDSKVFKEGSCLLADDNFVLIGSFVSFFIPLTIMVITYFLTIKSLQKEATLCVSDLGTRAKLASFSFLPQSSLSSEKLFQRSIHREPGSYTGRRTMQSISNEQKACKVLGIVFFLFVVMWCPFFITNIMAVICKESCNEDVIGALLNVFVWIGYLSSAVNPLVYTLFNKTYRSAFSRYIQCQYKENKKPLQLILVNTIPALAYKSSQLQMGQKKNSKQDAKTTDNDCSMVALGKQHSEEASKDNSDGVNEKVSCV
human 5-HT2A receptor, sequence (P28223 whole entry): as above
mouse 5-HT2A (m5-HT2A), sequence (P35363 whole entry): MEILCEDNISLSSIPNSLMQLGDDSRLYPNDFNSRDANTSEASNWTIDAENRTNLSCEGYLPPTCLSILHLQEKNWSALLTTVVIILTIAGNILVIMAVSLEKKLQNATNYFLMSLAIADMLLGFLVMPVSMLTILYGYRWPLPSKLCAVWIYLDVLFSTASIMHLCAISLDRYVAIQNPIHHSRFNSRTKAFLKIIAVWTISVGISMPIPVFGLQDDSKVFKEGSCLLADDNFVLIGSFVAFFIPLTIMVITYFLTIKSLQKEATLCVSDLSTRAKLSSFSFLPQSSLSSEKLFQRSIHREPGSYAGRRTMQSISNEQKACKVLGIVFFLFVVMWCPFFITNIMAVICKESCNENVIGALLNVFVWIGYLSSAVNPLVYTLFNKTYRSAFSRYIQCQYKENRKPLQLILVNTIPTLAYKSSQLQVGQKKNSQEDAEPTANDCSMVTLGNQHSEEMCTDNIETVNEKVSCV
human 5-HT2B (h5-HT2B), sequence (P41595 whole entry): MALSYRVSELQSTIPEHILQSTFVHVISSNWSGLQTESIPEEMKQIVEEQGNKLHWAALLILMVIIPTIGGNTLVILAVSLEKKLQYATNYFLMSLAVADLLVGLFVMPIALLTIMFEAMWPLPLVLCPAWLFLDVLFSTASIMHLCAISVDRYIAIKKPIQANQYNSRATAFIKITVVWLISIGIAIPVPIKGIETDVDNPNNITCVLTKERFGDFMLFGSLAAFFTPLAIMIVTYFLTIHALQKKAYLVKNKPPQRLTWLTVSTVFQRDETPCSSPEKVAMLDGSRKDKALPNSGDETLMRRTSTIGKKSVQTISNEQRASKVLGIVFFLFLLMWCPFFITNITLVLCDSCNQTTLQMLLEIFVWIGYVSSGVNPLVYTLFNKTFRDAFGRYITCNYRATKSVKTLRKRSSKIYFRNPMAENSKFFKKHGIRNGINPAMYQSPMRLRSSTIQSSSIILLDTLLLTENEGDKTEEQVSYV
α2C, sequence (P18825 whole entry): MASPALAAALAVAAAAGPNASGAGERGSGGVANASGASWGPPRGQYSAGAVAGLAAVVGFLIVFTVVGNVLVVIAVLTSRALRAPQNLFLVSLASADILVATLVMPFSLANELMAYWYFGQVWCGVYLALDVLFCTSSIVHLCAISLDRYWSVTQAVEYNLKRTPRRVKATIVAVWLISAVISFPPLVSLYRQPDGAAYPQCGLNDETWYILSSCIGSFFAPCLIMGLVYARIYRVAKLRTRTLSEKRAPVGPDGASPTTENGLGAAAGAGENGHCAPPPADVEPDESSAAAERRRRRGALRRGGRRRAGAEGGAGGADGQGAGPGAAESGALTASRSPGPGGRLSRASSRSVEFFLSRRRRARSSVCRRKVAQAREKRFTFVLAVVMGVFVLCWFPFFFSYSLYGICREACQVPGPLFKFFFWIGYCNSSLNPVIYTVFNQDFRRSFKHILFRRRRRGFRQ
α1D, sequence (P25100 whole entry): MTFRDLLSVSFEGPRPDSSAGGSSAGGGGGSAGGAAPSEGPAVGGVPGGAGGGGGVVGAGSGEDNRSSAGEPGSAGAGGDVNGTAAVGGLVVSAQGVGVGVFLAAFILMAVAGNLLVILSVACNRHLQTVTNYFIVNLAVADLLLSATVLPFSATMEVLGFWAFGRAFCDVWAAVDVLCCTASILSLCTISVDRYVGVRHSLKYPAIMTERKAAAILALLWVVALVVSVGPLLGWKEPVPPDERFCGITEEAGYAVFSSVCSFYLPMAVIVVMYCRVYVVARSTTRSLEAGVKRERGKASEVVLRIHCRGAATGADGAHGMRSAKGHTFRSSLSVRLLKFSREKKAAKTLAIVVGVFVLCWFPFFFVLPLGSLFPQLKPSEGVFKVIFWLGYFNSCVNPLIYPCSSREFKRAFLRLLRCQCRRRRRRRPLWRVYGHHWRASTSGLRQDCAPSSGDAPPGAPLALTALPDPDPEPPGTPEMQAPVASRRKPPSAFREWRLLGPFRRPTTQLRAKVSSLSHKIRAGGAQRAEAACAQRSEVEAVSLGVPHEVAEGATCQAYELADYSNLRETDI
5-HT7A, sequence (P34969 1-445 isoform P34969-2): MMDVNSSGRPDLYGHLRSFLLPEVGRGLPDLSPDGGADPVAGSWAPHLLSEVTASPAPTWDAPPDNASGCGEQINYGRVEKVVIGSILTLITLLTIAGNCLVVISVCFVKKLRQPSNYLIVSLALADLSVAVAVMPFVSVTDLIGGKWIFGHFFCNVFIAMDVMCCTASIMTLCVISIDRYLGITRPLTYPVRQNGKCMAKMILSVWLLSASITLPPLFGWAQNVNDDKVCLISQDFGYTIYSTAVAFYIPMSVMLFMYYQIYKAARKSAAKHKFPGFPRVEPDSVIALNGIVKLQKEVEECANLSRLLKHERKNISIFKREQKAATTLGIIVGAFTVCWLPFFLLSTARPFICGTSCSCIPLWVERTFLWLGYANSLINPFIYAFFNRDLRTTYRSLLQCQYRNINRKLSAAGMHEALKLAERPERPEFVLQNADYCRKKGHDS
D2, sequence (P14416 whole entry): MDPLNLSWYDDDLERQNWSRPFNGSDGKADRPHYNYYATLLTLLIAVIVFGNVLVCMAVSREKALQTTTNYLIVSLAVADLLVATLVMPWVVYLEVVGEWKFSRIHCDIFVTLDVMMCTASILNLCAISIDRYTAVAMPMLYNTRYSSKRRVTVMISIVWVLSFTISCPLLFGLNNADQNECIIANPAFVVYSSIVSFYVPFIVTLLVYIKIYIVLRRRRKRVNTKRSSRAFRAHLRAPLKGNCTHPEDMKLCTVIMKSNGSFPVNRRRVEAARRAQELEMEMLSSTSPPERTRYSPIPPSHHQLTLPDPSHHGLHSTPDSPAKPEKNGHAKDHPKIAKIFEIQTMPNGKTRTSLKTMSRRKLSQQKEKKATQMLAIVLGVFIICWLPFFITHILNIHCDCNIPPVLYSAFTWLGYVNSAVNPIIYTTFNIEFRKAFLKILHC
β1, sequence (P08588 whole entry): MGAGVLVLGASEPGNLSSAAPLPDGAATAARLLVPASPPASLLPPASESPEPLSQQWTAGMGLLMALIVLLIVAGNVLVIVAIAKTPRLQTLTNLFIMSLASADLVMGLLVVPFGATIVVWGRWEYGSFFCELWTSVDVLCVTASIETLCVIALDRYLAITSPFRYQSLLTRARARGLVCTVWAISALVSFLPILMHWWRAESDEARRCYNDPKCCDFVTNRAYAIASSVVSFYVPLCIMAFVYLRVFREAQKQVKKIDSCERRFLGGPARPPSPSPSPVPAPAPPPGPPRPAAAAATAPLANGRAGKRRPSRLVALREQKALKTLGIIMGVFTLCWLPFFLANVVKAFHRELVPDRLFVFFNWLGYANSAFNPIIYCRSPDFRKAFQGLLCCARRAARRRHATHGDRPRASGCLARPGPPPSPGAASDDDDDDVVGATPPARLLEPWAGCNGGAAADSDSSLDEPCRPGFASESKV
5-HT1B, sequence (P28222 whole entry): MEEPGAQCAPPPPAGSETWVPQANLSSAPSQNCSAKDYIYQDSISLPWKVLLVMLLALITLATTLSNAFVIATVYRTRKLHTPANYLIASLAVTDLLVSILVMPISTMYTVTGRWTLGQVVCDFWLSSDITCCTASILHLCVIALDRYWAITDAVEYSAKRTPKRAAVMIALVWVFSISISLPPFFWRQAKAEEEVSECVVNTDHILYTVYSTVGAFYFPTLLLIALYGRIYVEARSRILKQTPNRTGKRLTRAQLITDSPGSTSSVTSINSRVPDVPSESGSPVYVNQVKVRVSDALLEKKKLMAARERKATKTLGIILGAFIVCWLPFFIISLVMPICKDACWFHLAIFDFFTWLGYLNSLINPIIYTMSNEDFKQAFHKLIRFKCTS
5-HT2B, sequence (P41595 whole entry): as the sequence (P41595 whole entry) above

SMILES: CCCC(=O)n1cc2c3c(cccc31)C1=C[C@@H](C(=O)N(CC)CC)CN(C)[C@@H]1C2 [1B-LSD, 1-butanoyl-D-lysergic acid diethylamide]
- Ki [1]: 345 ± 118 nM
- fold lower affinity than LSD for the 5-HT1A receptor [1]: 36 fold
- Ki [2]: 87.7 ± 9.4 nM
- Ki [3]: 20.8 nM
- Ki [4]: 1460 nM
- Ki [5]: 295 ± 77 nM
- Ki [6]: 3.5 ± 0.6 nM
- Ki [7]: 158 ± 42 nM
- Ki [8]: 607 ± 112 nM
- Ki [9]: 554 ± 158 nM
- Ki [10]: > 10000 nM
- Ki [11]: > 10000 nM
- Ki [12]: > 10000 nM
- Ki [13]: 537 ± 85 nM
- Ki [14]: 2660 nM
- Ki [15]: 812 ± 267 nM
- Ki [16]: > 10000 nM
- Ki [17]: > 10000 nM
- Ki [18]: > 10000 nM
- Ki [19]: 1170 nM
- Ki [20]: > 10000 nM
- Ki [21]: 352 ± 64 nM
- Ki [22]: 2270 nM
- Ki [23]: > 10000 nM
- Ki [24]: > 10000 nM
- Ki [25]: 842 ± 201 nM
- Ki [26]: > 10000 nM
- Ki [27]: > 10000 nM
- EC50 ([28]; EC50, nM): 85 nM
- Emax % 5-HT [28]: 23 % 5-HT and 23 ± 2 % 5-HT
- EC50 ([29]; EC50, nM): 45 nM
- Emax % 5-HT [29]: 35 ± 2 % 5-HT
- agonist activity [30]: no agonist activity
- agonist activity [31]: no agonist activity
- HTR potency as percent of the (molar) potency of LSD ([32]; HTR in mice): ~ 14%
- ED50 μg/kg (95% CI) ([33]; ref Brandt et al. (2019)): 457.6 (334.9–625.5) μg/kg
- ED50 nmol/kg (95% CI) ([33]; ref Brandt et al. (2019)): 976.7 (714.8–1335) nmol/kg
- Molar potency (relative to LSD) ([33]; ref Brandt et al. (2019), listed as 1-Butanoyl-LSD): 0.14

SMILES: CCC(=O)n1cc2c3c(cccc31)C1=C[C@@H](C(=O)N(CC)CC)CN(C)[C@@H]1C2 [1P-LSD, 1-propanoyl-D-lysergic acid diethylamide]
- Ki [1]: 637 ± 97 nM
- fold lower affinity than LSD for the 5-HT1A receptor [1]: 67 fold
- Ki [2]: 196 ± 19 nM
- Ki [3]: 13 ± 1.7 nM
- EC50 ([28]; EC50, nM): 11 nM
- EC50 ([28]; pEC50 ± SEM): 10.2 nM
- Emax % 5-HT [28]: 11 % 5-HT and 11 ± 1 % 5-HT
- Emax % 5-HT [29]: 23 ± 1 % 5-HT
- agonist activity [30]: no agonist activity
- agonist activity ([31]; h5-HT2C, Ca^2+ flux): no agonist activity
- ED50 μg/kg (95% CI) ([33]; ref Brandt et al. (2016)): 158.9 (65.0–388.8) μg/kg
- ED50 nmol/kg (95% CI) ([33]; ref Brandt et al. (2016)): 349.6 (143.0–855.4) nmol/kg
- Molar potency (relative to LSD) ([33]; ref Brandt et al. (2016)): one-third
- Molar potency (relative to LSD) ([33]; ref Brandt et al. (2016), listed as 1-Propanoyl-LSD): 0.38

SMILES: CCN(CC)C(=O)[C@@H]1C=C2c3cccc4c3c(cn4C(C)=O)C[C@H]2N(C)C1 [ALD-52, 1-Acetyl-D-lysergic acid diethylamide]
- Ki [1]: 1050 nM
- fold lower affinity than LSD for the 5-HT1A receptor [1]: 111 fold
- Ki [2]: 174 ± 43 nM
- Ki [3]: 10.2 ± 3.5 nM
- EC50 ([28]; EC50, nM): 38 nM
- EC50 ([28]; pEC50 ± SEM): 35.5 nM
- Emax % 5-HT [28]: 25 % 5-HT and 25 ± 2 % 5-HT
- EC50 ([29]; EC50, nM): 12 nM
- EC50 ([29]; pEC50 ± SEM): 11.5 nM
- Emax % 5-HT [29]: 29 ± 1 % 5-HT
- agonist activity [30]: no agonist activity
- agonist activity ([31]; h5-HT2C, Ca^2+ flux): no agonist activity
- HTR Counts (mean ± SEM) ([32]; 0.03 mg/kg IP): 8.4 ± 1.6
- HTR Counts (mean ± SEM) ([32]; 0.1 mg/kg IP): 12.6 ± 1.1
- HTR induced by ALD-52 after M100,907 pretreatment ([32]; 0.1 mg/kg M100,907 SC pretreatment, then 0.3 mg/kg ALD-52): did not induce head twitches
- HTR Counts (mean ± SEM) ([32]; 0.3 mg/kg IP): 25.4 ± 3.2
- Molar potency (relative to LSD) ([32]; HTR): 0.45
- ED50 ([32]; read-out: ED50 nmol/kg (95% CI)): 297 nmol/kg
- ED50 ([32]; read-out: ED50 μg/kg (95% CI)): 131 µg/kg
- potency relative to LSD ([34]; ref Abramson (1959)): 91%
- potency relative to LSD ([34]; ref Isbell et al. (1959)): equipotent
- active doses ([34]; ref Rothlin (1957)): 0.0005 to 0.001 mg/kg
- induction of head twitches in mice [35]: does not induce head twitches
